Test results as given in patent US20240238268A1, “TREATMENTS AND METHODS FOR TREATING ALZHEIMER'S DISEASE” (Board of Supervisors of Louisiana State University and …, priority 2021, published 2024).

Experiments:
[1] = test system: amyloid precursor protein (APP); assay: Amyloid precursor protein level in brain, capillary-phoresis; assay type: in vivo, mouse; conditions: treated 3xTg-AD mice; controls = 100%; not significantly changed vs untreated 3xTg
Source text: (§1) Capillary-phoresis immunoassay via ProteinSimple®: Quantification of all protein targets was achieved using Simple Western analysis in a Jess™ apparatus per the manufacturer's protocol (ProteinSimple, Bio-techne, Minneapolis, MN). Protein was extracted from dissected tissue in an extraction buffer consisting of T-PER® Tissue Protein Extraction Reagent (Cat. No. 78510, Thermo Fischer Scientific, Waltham, MA) and Halt™ Protease Inhibitor Cocktail (Cat. No. 87785, Thermo Fischer Scientific, Waltham, MA). Following homogenization and centrifugation (10,000×g, 5 min, 4° C.), protein concentration was determined in tissue protein supernatant samples using DC Protein Assay (Cat. No. 5000112, Bio-Rad Laboratories, Hercules, California) according to manufacturer instructions. […] Antibody diluent (ProteinSimple, Bio-techne, Minneapolis, MN) was used for all antibody dilutions as follows: PRMT4 (1:50, RRID: AB_2068436), PRMT6 (1:100, Cell Signaling Technology cat. 14641), eNOS (1:200, RRID: AB_10850618), nNOS (1:100, RRID: AB_2152488), iNOS (1:100, RRID: AB_10000625), DDAH2 (1:50, RRID: AB_2640442) Antibodies were detected using HRP-conjugated secondary anti-rabbit, and -mouse. Relative protein levels were calculated by measuring the area under the peak of a chemiluminescent chromatogram and normalized to total capillary chemiluminescence for a given sample. […]

[2] = test system: phosphorylated tau (pTau); assay: Phosphorylated tau level in brain, capillary-phoresis; assay type: in vivo, mouse; conditions: treated 3xTg mice; controls = 100%
Source text: as §1

3-nitrotyrosine = assay: 3-Nitrotyrosine ELISA of brain lysate; assay type: in vivo, mouse; conditions: combined cortex and hippocampus lysate
Method: OxiSelect™ 3-Nitrotyrosine ELISA: Protein was extracted from dissected tissue in an extraction buffer consisting of T-PER® Tissue Protein Extraction Reagent (Cat. No. 78510, Thermo Fischer Scientific, Waltham, MA) and Halt™ Protease Inhibitor Cocktail (Cat. No. 87785, Thermo Fischer Scientific, Waltham, MA). Following homogenization and centrifugation (10,000×g, 5 min, 4° C.), protein concentration was determined in the supernatant using DC Protein Assay (Cat. No. 5000112, Bio-Rad Laboratories, Hercules, California) according to manufacturer instructions. Levels of 3-Nitrotyrosine were determined using OxiSelect™ 3-Nitrotyrosine ELISA (Cat. No. STA-305, Cell Biolabs Inc., San Diego, CA). Briefly, 50 μL of protein lysate was added to a pre-coated 96-well plate and incubated at room temperature (20° C.) for 10 min on an orbital shaker. 50 μL of anti-nitrotyrosine antibody (1:1000, Cell Biolabs Inc., San Diego, CA) was added to each well and plate was incubated for 1 hr at 20° C. Wells were washed 3 times using assay wash buffer, and 100 μL of secondary antibody-enzyme conjugate (1:1000, Cell Biolabs Inc., San Diego, CA) was added to each well. Plate was then incubated for 1 hr at 20° C. on an orbital shaker. […] The standard curve was provided by the manufacturer, and all sample concentrations were determined from the standard curve values. Changes in absorbance were measured at 450 nm. […]

aged 3xTg-AD female mice = assay: Regional cortical cerebral blood flow, laser speckle contrast imaging; assay type: in vivo, mouse; conditions: 3xTg-AD mice; 30 mg/kg, IP, 7 days; untreated C57BL/6J = 100%
Method: Surgical Preparation and Anesthetic Procedure: Mice were anesthetized with 4% isoflurane (Cat. No. 21295098, Patterson Veterinary, Greeley, CO) and a mixture of O2 and N2O (30:70) via mask. Hair was shaved at the site of surgery (from the nape up to the eyes). Body temperature was maintained at 37° C. by a rodent heating pad with anal probe as a temperature reference (ThermoStar, RWD Life Science, San Diego, CA). Anesthesia was maintained by lowering isoflurane from 4% to 1%.
Thinned-skull preparation: Mice were placed in a stereotaxic frame to stabilize the skull and artificial tears (Patterson Veterinary, Greeley, CO) was applied in each eye. Dissection scissors and forceps were used to reveal the skull. A high-speed dental drill (RWD Life Science, San Diego, CA) was used to thin the skull creating a small window (1 mm in diameter) approximately 2 mm rostral and 1 mm lateral to the lambda, with saline irrigation to prevent overheating of the skull tissue. Laser speckle contrast imaging or two-photon laser scanning microscopy analyses were conducted following this preparation.
Laser speckle contrast imaging: Cerebral microvasculature was imaged by utilizing the thin skull preparation method. After thinning the skull, the mouse was placed in a stereotaxic apparatus. […]

PRMT4 = PRMT4 (Homo sapiens, UniProt Q86X55); conditions: cited from earlier work
[3] = test system: methylation of H3 (1-25) and MED12; conditions: in cell; cited from earlier work

Chain of PRMT4 (Q86X55 whole entry, species assumed): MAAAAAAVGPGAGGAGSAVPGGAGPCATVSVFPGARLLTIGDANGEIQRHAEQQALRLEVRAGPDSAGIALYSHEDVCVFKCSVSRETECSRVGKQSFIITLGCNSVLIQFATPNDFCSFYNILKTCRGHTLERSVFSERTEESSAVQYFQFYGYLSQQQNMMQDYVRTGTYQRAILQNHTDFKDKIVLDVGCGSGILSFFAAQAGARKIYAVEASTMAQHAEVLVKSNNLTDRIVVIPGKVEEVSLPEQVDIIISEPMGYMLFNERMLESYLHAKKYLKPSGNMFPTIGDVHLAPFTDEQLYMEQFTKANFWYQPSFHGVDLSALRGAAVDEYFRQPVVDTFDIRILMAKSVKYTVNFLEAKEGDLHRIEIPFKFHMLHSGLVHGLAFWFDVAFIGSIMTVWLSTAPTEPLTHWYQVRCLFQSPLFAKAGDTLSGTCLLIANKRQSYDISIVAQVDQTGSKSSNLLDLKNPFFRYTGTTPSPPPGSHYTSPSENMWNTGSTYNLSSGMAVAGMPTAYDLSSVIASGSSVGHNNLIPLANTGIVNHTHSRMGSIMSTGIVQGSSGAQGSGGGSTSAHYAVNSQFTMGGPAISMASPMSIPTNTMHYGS

With `CNCCN1CCC(c2cc(CN(C)C(=O)c3cccc(Oc4ccccc4)c3)ccn2)CC1` [TP-064, N-Methyl-N-((2-(1-(2-(methylamino)ethyl)piperidin-4-yl)pyridin-4-yl)methyl)-3-phenoxybenzamide] the “APP level in cortex” value [1] was 801%±36.3, the “APP level in hippocampus” value [1] was 1040%±31.1 and the “pTau level in cortex” value [2] was 234%±8.33. For the same compound, the “pTau level in hippocampus” value [2] was 307%±31.4, the 3-nitrotyrosine level (3-nitrotyrosine; 3xTg-AD mice) was 110 ± 27.2 µM and the 3-nitrotyrosine level (3-nitrotyrosine; C57BL/6J mice) was 86.9 ± 7.71 µM. The “regional cortical CBF” value (aged 3xTg-AD female mice) was 194%±8.6, the “selectivity over other histone methyltransferases and non-epigenetic targets” value (PRMT4) was greater than 100 fold and the “methylation of H3 (1-25) and MED12” value [3] was “inhibits”.
